Test system: primary HSCs
Details: Day_6_JQ1

Cc1sc2c(c1C)C(c1ccc(Cl)cc1)=N[C@@H](CC(=O)OC(C)(C)C)c1nnc(C)n1-2 [JQ1, (S)-tert-butyl 2-(4-(4-chlorophenyl)-2,3,9-trimethyl-6H-thieno[3,2-f][1,2,4]triazolo[4,3-a][1,4]diazepin-6-yl)acetate]
1110067D22Rik value_2: 7.6991 | 9930013L23Rik value_2: 31.3095 | A430110N23Rik value_2: 1.529 | Acot11 value_2: 1.6538 | Acpl2 value_2: 7.205 | Adam8 value_2: 11.9385 | Adamts12 value_2: 17.1447 | Adcy1 value_2: 0.8092 | Adcy5 value_2: 0.9801 | Adcy7 value_2: 3.439 | Aif1l value_2: 1.208 | Akap5 value_2: 1.478 | Aldh1a2 value_2: 19.1605 | Aldh1l1 value_2: 1.536 | Aldh1l2 value_2: 7.698 | Ankrd55 value_2: 7.519 | Apbb1ip value_2: 18.5518 | Apbb1 value_2: 7.273 | Arhgef6 value_2: 2.025 | Arhgef25 value_2: 25.9937 | Arl5a value_2: 37.4802 | Arsb value_2: 16.7663 | Avpr1a value_2: 1.651 | B3galnt1 value_2: 2.653 | B4galt2 value_2: 15.1944 | Bag2 value_2: 14.4878 | Bdnf value_2: 4.6088 | Bnip3 value_2: 18.6877 | Boc value_2: 14.1708 | Cacng7 value_2: 2.276 | Casp12 value_2: 4 | Ccbe1 value_2: 26.2027 | Ccnd2 value_2: 143.49 | Ccng1 value_2: 163.356 | Cd276 value_2: 5.674 | Cdh11 value_2: 17.4722 | Celf2 value_2: 11.1573 | Cercam value_2: 9.775 | Chpf value_2: 51.0364 | Chst12 value_2: 44.2429 | Chsy3 value_2: 4.1726 | Cnrip1 value_2: 15.1406 | Col1a1 value_2: 830.694 | Col4a5 value_2: 36.069 | Col12a1 value_2: 37.8465 | Col16a1 value_2: 5.064 | Copz2 value_2: 47.0355 | Cplx2 value_2: 3.358 | Crispld2 value_2: 4.912 | Crlf1 value_2: 26.6612 | Csrp2 value_2: 137.115 | Cul7 value_2: 19.1665 | Cxx1c value_2: 13.5431 | D4Bwg0951e value_2: 30.19 | Ddah1 value_2: 10.4898 | Dhrs1 value_2: 30.0462 | Dmpk value_2: 26.4788 | Dnpep value_2: 41.0591 | Dpysl3 value_2: 14.2712 | Dynlrb1 value_2: 162.462 | Dzip1l value_2: 10.8578 | Emp2 value_2: 8.903 | Enpp5 value_2: 25.6268 | Ext1 value_2: 80.2965 | Extl3 value_2: 35.6167 | Fah value_2: 1.793 | Fam19a5 value_2: 1.344 | Fam20a value_2: 11.2001 | Fam38b value_2: 3.39 | Fam110c value_2: 13.4372 | Fam132a value_2: 4.331 | Fap value_2: 1.601 | Fbxw9 value_2: 14.3107 | Fkbp7 value_2: 40.2493 | Fmod value_2: 2.369 | Fndc1 value_2: 15.189 | Fndc4 value_2: 1.244 | Folr1 value_2: 1.905 | Foxc2 value_2: 1.453 | Foxf2 value_2: 1.6602 | Frzb value_2: 144.416 | Fstl3 value_2: 14.8692 | Fzd6 value_2: 2.328 | Gdf6 value_2: 25.9944 | Gm2a value_2: 22.5206 | Gm14420 value_2: 13.7546 | Gmpr value_2: 8.026 | Gpc1 value_2: 10.285 | Gpc4 value_2: 94.2819 | Gpr39 value_2: 22.0499 | Gpr133 value_2: 3.842 | Gpr180 value_2: 14.9448 | Gria4 value_2: 2.6 | Gys1 value_2: 11.4841 | Hk2 value_2: 9.851 | Hoxb2 value_2: 33.6747 | Hrct1 value_2: 3.228 | Hs6st2 value_2: 23.4423 | Hspb1 value_2: 104.396 | Hspg2 value_2: 105.328 | Igf2 value_2: 3.249 | Igfbp2 value_2: 2.5845 | Iglon5 value_2: 2.148 | Ikbip value_2: 68.3911 | Itga5 value_2: 44.6427 | Jub value_2: 23.4821 | Kank1 value_2: 15.8777 | Kazald1 value_2: 4.522 | Kcne4 value_2: 8.547 | Kdm5b value_2: 17.3352 | Kif21b value_2: 8.145 | Kif26b value_2: 3.17 | Klhl26 value_2: 25.6223 | Lclat1 value_2: 20.6695 | Lepre1 value_2: 61.4792 | Leprel1 value_2: 4.84 | Leprel2 value_2: 31.892 | Lgals1 value_2: 1464.5 | Lims2 value_2: 12.2591 | Lox13 value_2: 12.0376 | Loxl1 value_2: 78.0679 | Loxl2 value_2: 668.398 | Lrrn2 value_2: 1.8093 | Mageh1 value_2: 22.8542 | Man2b2 value_2: 26.9926 | Mpzl1 value_2: 88.2456 | Mrvi1 value_2: 2.602 | Myh10 value_2: 34.498 | Myh11 value_2: 6.328 | Myl6 value_2: 531.936 | Mylk value_2: 62.0714 | Myo1d value_2: 22.5024 | Myof value_2: 42.2087 | Ncam1 value_2: 8.073 | Ndrg2 value_2: 12.6911 | Nexn value_2: 6.343 | Nid2 value_2: 130.153 | Nts value_2: 3.21 | Numbl value_2: 22.4916 | Obsl1 value_2: 3.108 | P4ha1 value_2: 120.896 | Palld value_2: 17.5752 | Pcsk5 value_2: 4.88 | Pde1a value_2: 9.282 | Pdlim4 value_2: 4.7862 | Pfkfb4 value_2: 2.359 | Phlda3 value_2: 132.249 | Phldb2 value_2: 149.373 | Phyhd1 value_2: 3.552 | Pla2g15 value_2: 24.3031 | Plac8 value_2: 104.172 | Plekhg3 value_2: 18.1798 | Plp2 value_2: 16.6661 | Plscr2 value_2: 7.544 | Plscr4 value_2: 8.1813 | Pmepa1 value_2: 29.4329 | Pmm1 value_2: 54.8681 | Pmp22 value_2: 85.9788 | Podn value_2: 1.458 | Polr3k value_2: 22.8928 | Pon3 value_2: 19.5497 | Popdc2 value_2: 4.263 | Ppapdc1b value_2: 13.4067 | Ppp1r14a value_2: 20.201 | Pppde2 value_2: 20.4808 | Prdx2 value_2: 167.804 | Prickle1 value_2: 14.268 | Prrc1 value_2: 19.9334 | Psrc1 value_2: 6.874 | Pter value_2: 1.743 | Ptpla value_2: 12.4632 | Ptplad2 value_2: 8.106 | Pvrl2 value_2: 81.9103 | Pygl value_2: 3.275 | Rab7l1 value_2: 5.901 | Rab15 value_2: 1.498 | Rab34 value_2: 55.2701 | Rab3d value_2: 8.99 | Rftn2 value_2: 1.387 | Rhobtb3 value_2: 13.6471 | Rnft1 value_2: 17.8003 | Ror1 value_2: 6.1328 | Rprd1a value_2: 7.118 | Runx2 value_2: 3.741 | Ryk value_2: 55.3732 | S100a1 value_2: 70.3658 | Sardh value_2: 3.193 | Sat2 value_2: 5.26 | Sce1 value_2: 3.6703 | Selm value_2: 80.5867 | Sepx1 value_2: 93.1036 | Serpine2 value_2: 7.825 | Serpinh1 value_2: 1190.39 | Setd7 value_2: 32.7601 | Sfrp1 value_2: 33.2277 | Sgce value_2: 7.751 | Sh3gl3 value_2: 1.09 | Sh3kbp1 value_2: 10.1373 | Shisa3 value_2: 4.345 | Skp2 value_2: 4.997 | Slc2a10 value_2: 2.062 | Slc35a2 value_2: 23.1121 | Slc44a2 value_2: 59.6308 | Slit3 value_2: 39.3977 | Snai1 value_2: 35.4904 | Snta1 value_2: 25.2902 | Snx30 value_2: 13.1255 | Sparcl1 value_2: 5.629 | Speg value_2: 7.409 | Spp1 value_2: 226.746 | Srgap3 value_2: 1.389 | Srpx value_2: 2.6404

Reference: patent US20180325914A1, “INCREASING STORAGE OF VITAMIN A, VITAMIN D AND/OR LIPIDS” (Salk Institute for Biological Studies, priority 2014, published 2018)
